In brackets after ≈: the same amount, converted by molar mass. Starred links: 1 amine or outer side, 2 acyl side, 3 side chain; linkers in the order of their positions; H or OH if unused. Positions of bridges follow the written chain, without caps; N, C: chain ends. Non-standard residues stand in square brackets, D forms with d. Residues, ends and D or L forms follow the SMILES beside them. *: point of attachment. Orn(4R-OH,5R-OH) = O=C([C@H](C[C@@H](O)[C@@H](O)N[*:3])N[*:1])[*:2]; hTyr(3S-OH,4S-OH) = N[C@H](C(=O)O)[C@H](O)[C@@H](O)c1ccc(O)cc1; Pro(3S-OH,4S-Me) = C[C@H]1CN[C@H](C(=O)O)[C@H]1O; Benzoyl(4-octyloxy) = CCCCCCCCOc1ccc(C(=O)*)cc1; hTyr = N[C@@H](CCc1ccc(O)cc1)C(=O)O; Hyp = O=C(O)[C@@H]1C[C@@H](O)CN1; Orn = NCCC[C@H](N)C(=O)O
Tests used:
Candida parapsilosis = test: Antifungal activity on Candida parapsilosis MY1010; format: functional; conditions: Lodderomyces parapsilosis
Candida tropicalis = test: Antifungal activity on Candida tropicalis MY101; format: functional
Candida albicans [1] = test: Antifungal activity on Candida albicans MY1028.; format: functional
Candida albicans [2] = test: Antifungal activity on Candida albicans MY1055.; format: functional
Candida albicans [3] = test: Antifungal activity on Candida albicans MY1208.; format: functional
Candida albicans [4] = test: Concentration inhibiting Candida beta-1,3-glucan synthesis was determined in a Candida albicans cell culture; format: functional, organism-based

Row | Structure (SMILES) | MFC (Candida parapsilosis) | MFC (Candida tropicalis) | MFC (Candida albicans [1]) | MFC (Candida albicans [2]) | MFC (Candida albicans [3]) | IC50 (Candida albicans [4])
1 | CCCCCCCCOc1ccc(C(=O)N[C@H]2CCCNC(=O)[C@@H]3[C@@H](O)[C@@H](C)CN3C(=O)[C@H]([C@@H](C)O)NC(=O)[C@H](Cc3ccc(O)cc3)NC(=O)[C@@H]3C[C@@H](O)CN3C(=O)[C@H]([C@@H](C)O)NC2=O)cc1 ({Benzoyl(4-octyloxy)}-[Orn]T[Hyp]YT[Pro(3S-OH,4S-Me)]; lactam 1-C) | > 128 µg/mL | > 128 µg/mL | > 128 µg/mL | > 128 µg/mL | > 128 µg/mL | 
2 | C[C@@H](O)[C@@H]1NC(=O)[C@H](CCc2ccc(O)cc2)NC(=O)[C@@H]2C[C@@H](O)CN2C(=O)[C@H]([C@@H](C)O)NC(=O)[C@@H](N)CCCNC(=O)[C@H]([C@@H](C)O)NC1=O (H-[Orn]T[Hyp][hTyr]TT; lactam 1-C) | > 128 µg/mL | 4 µg/mL (≈ 5.65 µM) | 8 µg/mL (≈ 11.3 µM) | 8 µg/mL (≈ 11.3 µM) | 8 µg/mL (≈ 11.3 µM) | > 10 µM
3 | CCCCCCCCOc1ccc(C(=O)N[C@H]2CCCNC(=O)[C@@H]3C[C@@H](O)CN3C(=O)[C@H]([C@@H](C)O)NC(=O)[C@H](Cc3ccc(O)cc3)NC(=O)[C@@H]3CCCN3C(=O)[C@H]([C@@H](C)O)NC2=O)cc1 ({Benzoyl(4-octyloxy)}-[Orn]TPYT[Hyp]; lactam 1-C) | > 128 µg/mL | > 128 µg/mL | > 128 µg/mL | > 128 µg/mL | > 128 µg/mL | > 10 µM
4 | CCCCCCCCOc1ccc(C(=O)N[C@H]2CCCNC(=O)[C@@H]3CCCN3C(=O)[C@H]([C@@H](C)O)NC(=O)[C@H](CCc3ccc(O)cc3)NC(=O)[C@@H]3CCCN3C(=O)[C@H]([C@@H](C)O)NC2=O)cc1 ({Benzoyl(4-octyloxy)}-[Orn]TP[hTyr]TP; lactam 1-C) | > 128 µg/mL | 4 µg/mL (≈ 4.35 µM) |  | 4 µg/mL (≈ 4.35 µM) | 4 µg/mL (≈ 4.35 µM) | > 10 µM
5 | CCCCCCCCOc1ccc(C(=O)N[C@H]2CCCNC(=O)[C@@H]3CCCN3C(=O)[C@H]([C@@H](C)O)NC(=O)[C@H](Cc3ccc(O)cc3)NC(=O)[C@@H]3CCCN3C(=O)[C@H]([C@@H](C)O)NC2=O)cc1 ({Benzoyl(4-octyloxy)}-[Orn]TPYTP; lactam 1-C) |  | > 64 µg/mL | > 64 µg/mL | > 64 µg/mL | > 64 µg/mL | > 10 µM
6 | CCCCCCCCOc1ccc(C(=O)N[C@H]2CCCNC(=O)[C@@H]3[C@@H](O)[C@@H](C)CN3C(=O)[C@H]([C@@H](C)O)NC(=O)[C@H](CCc3ccc(O)cc3)NC(=O)[C@@H]3C[C@@H](O)CN3C(=O)[C@H]([C@@H](C)O)NC2=O)cc1 ({Benzoyl(4-octyloxy)}-[Orn]T[Hyp][hTyr]T[Pro(3S-OH,4S-Me)]; lactam 1-C) | 8 µg/mL (≈ 8.28 µM) | 1 µg/mL (≈ 1.04 µM) | 2 µg/mL (≈ 2.07 µM) | 1 µg/mL (≈ 1.04 µM) | 2 µg/mL (≈ 2.07 µM) | 3 µM
7 | CCCCCCCCOc1ccc(C(=O)N[C@H]2CCCNC(=O)[C@@H]3C[C@@H](O)CN3C(=O)[C@H]([C@@H](C)O)NC(=O)[C@H](CCc3ccc(O)cc3)NC(=O)[C@@H]3C[C@@H](O)CN3C(=O)[C@H]([C@@H](C)O)NC2=O)cc1 ({Benzoyl(4-octyloxy)}-[Orn]T[Hyp][hTyr]T[Hyp]; lactam 1-C) | > 128 µg/mL | 8 µg/mL (≈ 8.4 µM) | 8 µg/mL (≈ 8.4 µM) | 8 µg/mL (≈ 8.4 µM) | 8 µg/mL (≈ 8.4 µM) | 10 µM
8 | CCCCCCCCOc1ccc(C(=O)N[C@H]2C[C@@H](O)[C@@H](O)NC(=O)[C@@H]3[C@@H](O)[C@@H](C)CN3C(=O)[C@H]([C@@H](C)O)NC(=O)[C@H]([C@H](O)[C@@H](O)c3ccc(O)cc3)NC(=O)[C@@H]3C[C@@H](O)CN3C(=O)[C@H]([C@@H](C)O)NC2=O)cc1 [CILOFUNGIN] ({Benzoyl(4-octyloxy)}-[Orn(4R-OH,5R-OH)]T[Hyp][hTyr(3S-OH,4S-OH)]T[Pro(3S-OH,4S-Me)]; lactam 1-C) | 8 µg/mL (≈ 7.77 µM) | 0.5 µg/mL (≈ 0.485 µM) | 0.5 µg/mL (≈ 0.485 µM) | 0.5 µg/mL (≈ 0.485 µM) | 2 µg/mL (≈ 1.94 µM) | 1 µM
9 | CCCCCCCCOc1ccc(C(=O)N[C@H]2CCCNC(=O)[C@@H]3CCCN3C(=O)[C@H]([C@@H](C)O)NC(=O)[C@H](CCc3ccc(O)cc3)NC(=O)[C@@H]3C[C@@H](O)CN3C(=O)[C@H]([C@@H](C)O)NC2=O)cc1 ({Benzoyl(4-octyloxy)}-[Orn]T[Hyp][hTyr]TP; lactam 1-C) | 8 µg/mL (≈ 8.55 µM) | 0.25 µg/mL (≈ 0.267 µM) | 4 µg/mL (≈ 4.27 µM) | 8 µg/mL (≈ 8.55 µM) | 4 µg/mL (≈ 4.27 µM) | 10 µM
10 | CCCCCCCCOc1ccc(C(=O)N[C@H]2CCCNC(=O)[C@@H]3CCCN3C(=O)[C@H]([C@@H](C)O)NC(=O)[C@H](Cc3ccc(O)cc3)NC(=O)[C@@H]3C[C@@H](O)CN3C(=O)[C@H]([C@@H](C)O)NC2=O)cc1 ({Benzoyl(4-octyloxy)}-[Orn]T[Hyp]YTP; lactam 1-C) | > 128 µg/mL | > 128 µg/mL | > 128 µg/mL |  | > 128 µg/mL | > 10 µM
11 | CCCCCCCCOc1ccc(C(=O)N[C@H]2CCCNC(=O)[C@@H]3C[C@@H](O)CN3C(=O)[C@H]([C@@H](C)O)NC(=O)[C@H](Cc3ccc(O)cc3)NC(=O)[C@@H]3C[C@@H](O)CN3C(=O)[C@H]([C@@H](C)O)NC2=O)cc1 ({Benzoyl(4-octyloxy)}-[Orn]T[Hyp]YT[Hyp]; lactam 1-C) | > 128 µg/mL | > 128 µg/mL | > 128 µg/mL | > 128 µg/mL | > 128 µg/mL | > 10 µM
